We go through 1 substance from patent US20160152679A1, “RELAXIN-LIKE COMPOUNDS AND USES THEREOF” (ANGION BIOMEDICA CORP., priority 2012, published 2016).

This test concerns parental HEK-293T cells. In words: cAMP-Glo assay in parental HEK-293T cells lacking RXFP1. The note with it: parental HEK-293T cells (lack RXFP1); relaxin 10 ng/mL or compound 10 µg/mL; 30 or 60 min. Format: cell-based.

For relaxin, the “cAMP response in parental cells” value is listed as “no cAMP response”.
